Columns and labels:
Assay in all cases: NCI one-dose assay
Format in all cases: cell-based
[1] = tested on: CAKI-1; conditions: Homo sapiens, CAKI-1, Renal cancer, read-out: Cell growth inhibition %
Method: (§1) The National Cancer Institute (NCI), Bethesda, USA, selected the final compounds 6a–j and 7a–j for in vitro anticancer screening. An initial in vitro single-dose anticancer experiment was performed with the entire NCI 60 cell lines derived from nine tumor subpanel cancer cell lines. The results for each compound were illustrated as a mean graph showing the percentage growth of treated cells compared to untreated control cells (see Supplementary Materials).
(§2) The NCI anticancer screening process has been thoroughly detailed. The Drug Evaluation Branch of the National Cancer Institute in Bethesda, […], USA, established the procedure and conducted the anticancer assay on 60 human tumor cell lines from nine neoplastic cancers.

[2] = tested on: NCI/ADR-RES; conditions: Homo sapiens, Ovarian cancer, read-out: Cell growth inhibition %
Method: as §1, §2

[3] = tested on: SNB-75; conditions: Homo sapiens, SNB-75, CNS cancer, read-out: Cell growth inhibition %
Method: as §1, §2

[4] = tested on: SN12C; conditions: Homo sapiens, Renal cancer, read-out: Cell growth inhibition %
Method: as §1, §2

[5] = tested on: OVCAR-8; conditions: Homo sapiens, OVCAR-8, Ovarian cancer, read-out: Cell growth inhibition %
Method: as §1, §2

[6] = tested on: SF-539; conditions: Homo sapiens, SF-539, CNS cancer, read-out: Cell growth inhibition %
Method: as §1, §2

[7] = tested on: CCRF-CEM; conditions: Homo sapiens, Leukemia, read-out: Cell growth inhibition %
Method: as §1, §2

[8] = tested on: SK-MEL-2; conditions: Homo sapiens, SK-MEL-2, Melanoma, read-out: Cell growth inhibition %
Method: as §1, §2

[9] = tested on: NCI-H23; conditions: Homo sapiens, NCI-H23, Non-small cell lung cancer, read-out: Cell growth inhibition %
Method: as §1, §2

[10] = tested on: UACC-257; conditions: Homo sapiens, UACC-257, Melanoma, read-out: Cell growth inhibition %
Method: as §1, §2

[11] = tested on: OVCAR-4; conditions: Homo sapiens, OVCAR-4, Ovarian cancer, read-out: Cell growth inhibition %
Method: as §1, §2

[12] = tested on: HT29; conditions: Homo sapiens, HT-29, HT29, Colon cancer, read-out: Cell growth inhibition %
Method: as §1, §2

[13] = tested on: HCT-15; conditions: Homo sapiens, HCT-15, Colon cancer, read-out: Cell growth inhibition %
Method: as §1, §2

[14] = tested on: HOP-62; conditions: Homo sapiens, HOP-62, Non-small cell lung cancer, read-out: Cell growth inhibition %
Method: as §1, §2

[15] = tested on: HCC-2998; conditions: Homo sapiens, HCC-2998, Colon cancer, read-out: Cell growth inhibition %
Method: as §1, §2

[16] = tested on: DU-145; conditions: Homo sapiens, DU-145, Prostate cancer, read-out: Cell growth inhibition %
Method: as §1, §2

[17] = tested on: MDA-MB-468; conditions: Homo sapiens, MDA-MB-468, Breast cancer, read-out: Cell growth inhibition %
Method: as §1, §2

[18] = tested on: HCT-116; conditions: Homo sapiens, HCT-116, Colon cancer, read-out: Cell growth inhibition %
Method: as §1, §2

[19] = tested on: MOLT-4; conditions: Homo sapiens, MOLT-4, Leukemia, read-out: Cell growth inhibition %
Method: as §1, §2

[20] = tested on: T-47D; conditions: Homo sapiens, T47D, Breast cancer, read-out: Cell growth inhibition %
Method: as §1, §2

[21] = tested on: SK-MEL-5; conditions: Homo sapiens, SK-MEL-5, Melanoma, read-out: Cell growth inhibition %
Method: as §1, §2

[22] = tested on: SK-OV-3; conditions: Homo sapiens, SK-OV-3, Ovarian cancer, read-out: Cell growth inhibition %
Method: as §1, §2

[23] = tested on: MDA-MB-231/ATCC; conditions: Homo sapiens, Breast cancer, read-out: Cell growth inhibition %
Method: as §1, §2

[24] = tested on: MALME-3M; conditions: Homo sapiens, Melanoma, read-out: Cell growth inhibition %
Method: as §1, §2

[25] = tested on: SR; conditions: Homo sapiens, Leukemia, read-out: Cell growth inhibition %
Method: as §1, §2

[26] = tested on: SW-620; conditions: Homo sapiens, SW-620, Colon cancer, read-out: Cell growth inhibition %
Method: as §1, §2

[27] = tested on: K-562; conditions: Homo sapiens, K562, K-562, Leukemia, read-out: Cell growth inhibition %
Method: as §1, §2

[28] = tested on: MDA-MB-435; conditions: Homo sapiens, MDA-MB-435, Melanoma, read-out: Cell growth inhibition %
Method: as §1, §2

[29] = tested on: TK-10; conditions: Homo sapiens, TK-10, Renal cancer, read-out: Cell growth inhibition %
Method: as §1, §2

[30] = tested on: BT-549; conditions: Homo sapiens, BT-549, Breast cancer, read-out: Cell growth inhibition %
Method: as §1, §2

[31] = tested on: IGROV1; conditions: Homo sapiens, IGROV-1, IGROV1, Ovarian cancer, read-out: Cell growth inhibition %
Method: as §1, §2

[32] = tested on: OVCAR-5; conditions: Homo sapiens, OVCAR-5, Ovarian cancer, read-out: Cell growth inhibition %
Method: as §1, §2

[33] = tested on: HS 578 T; conditions: Homo sapiens, Breast cancer, read-out: Cell growth inhibition %
Method: as §1, §2

[34] = tested on: SNB-19; conditions: Homo sapiens, SNB-19, CNS cancer, read-out: Cell growth inhibition %
Method: as §1, §2

[35] = tested on: UACC-62; conditions: Homo sapiens, UACC-62, Melanoma, read-out: Cell growth inhibition %
Method: as §1, §2

[36] = tested on: KM12; conditions: Homo sapiens, KM12, Colon cancer, read-out: Cell growth inhibition %
Method: as §1, §2

Compound | inhibition at 10 µM [1] [%] | inhibition at 10 µM [2] [%] | inhibition at 10 µM [3] [%] | inhibition at 10 µM [4] [%] | inhibition at 10 µM [5] [%] | inhibition at 10 µM [6] [%] | inhibition at 10 µM [7] [%] | inhibition at 10 µM [8] [%] | inhibition at 10 µM [9] [%] | inhibition at 10 µM [10] [%] | inhibition at 10 µM [11] [%] | inhibition at 10 µM [12] [%] | inhibition at 10 µM [13] [%] | inhibition at 10 µM [14] [%] | inhibition at 10 µM [15] [%] | inhibition at 10 µM [16] [%] | inhibition at 10 µM [17] [%] | inhibition at 10 µM [18] [%] | inhibition at 10 µM [19] [%] | inhibition at 10 µM [20] [%] | also measured
C=CCn1c(SCC(=O)c2ccc(Cl)cc2)nnc1-c1c[nH]c2ccccc12 [Compound 6e, 2-((4-Allyl-5-(1H-indol-3-yl)-4H-1,2,4-triazol-3-yl)thio)-1-(4-chlorophenyl)ethenone] | 7.04 | -2.31 | -0.53 | 4.38 | 9.77 | 0.21 | 2.28 | -17.1 | -7.09 | 2.2 | -8 | -7.4 | 6.28 | 4.08 | -15.6 | -14.4 | 8 | 6.8 | 10.6 | 3.25 | inhibition at 10 µM [21]: 3.94%; inhibition at 10 µM [22]: -20.6%; inhibition at 10 µM [23]: 8.19%; inhibition at 10 µM [24]: 9.28%; inhibition at 10 µM [25]: 12.2%; inhibition at 10 µM [26]: -2.66%; inhibition at 10 µM [27]: 10.1%; inhibition at 10 µM [28]: -5.05%; inhibition at 10 µM [29]: -24.3%; inhibition at 10 µM [30]: -0.26%; inhibition at 10 µM [31]: 7.38%; inhibition at 10 µM [32]: -5.38%; inhibition at 10 µM [33]: -3.65%; inhibition at 10 µM [34]: 0.6%; inhibition at 10 µM [35]: 14.7%; inhibition at 10 µM [36]: -3.89%
O=C(CSc1nnc(-c2c[nH]c3ccccc23)n1-c1ccccc1)c1ccccc1 [Compound 6f, 2-((5-(1H-indol-3-yl)-4-phenyl-4H-1,2,4-triazol-3-yl)thio)-1-phenylethanone] | 46.8 | 85.2 | -0.34 | 55.3 | 85.3 | 92.4 | 8.65 | 8.14 | 55.1 | -3.2 | 102 | 52.1 | 20.6 | 76.6 | 16.9 | 14.3 | 22.8 | 62 | 9.43 | 16.5 | inhibition at 10 µM [21]: 9.3%; inhibition at 10 µM [22]: 14.4%; inhibition at 10 µM [23]: 73%; inhibition at 10 µM [24]: 62.6%; inhibition at 10 µM [25]: 18.4%; inhibition at 10 µM [26]: 23.9%; inhibition at 10 µM [27]: 47.2%; inhibition at 10 µM [28]: 12.8%; inhibition at 10 µM [29]: 28%; inhibition at 10 µM [30]: 37.8%; inhibition at 10 µM [31]: 44.9%; inhibition at 10 µM [32]: 11.4%; inhibition at 10 µM [33]: 75.9%; inhibition at 10 µM [34]: 80.8%; inhibition at 10 µM [35]: 26.6%; inhibition at 10 µM [36]: 30.5%
COc1ccc(C(=O)CSc2nnc(-c3c[nH]c4ccccc34)n2-c2ccccc2)cc1 [Compound 6g, 2-((5-(1H-Indol-3-yl)-4-phenyl-4H-1,2,4-triazol-3-yl)thio)-1-(4-methoxyphenyl) Ethenone] | 38.5 | 100 | 85 | 55.6 | 84.5 | 71.5 | 17.5 | 28 | 43.5 | 40.5 | 99.4 | 16.9 | 26.7 | 91.2 | 22.2 | 31.1 | 40.2 | 47.5 | 17.9 | 43.3 | inhibition at 10 µM [21]: 18.6%; inhibition at 10 µM [22]: 33.7%; inhibition at 10 µM [23]: 54.4%; inhibition at 10 µM [24]: 116%; inhibition at 10 µM [25]: 20.3%; inhibition at 10 µM [26]: 13.7%; inhibition at 10 µM [27]: 41.8%; inhibition at 10 µM [28]: 30.9%; inhibition at 10 µM [29]: 36.1%; inhibition at 10 µM [30]: 75.3%; inhibition at 10 µM [31]: 39.5%; inhibition at 10 µM [32]: 22.6%; inhibition at 10 µM [33]: 84.5%; inhibition at 10 µM [34]: 70.2%; inhibition at 10 µM [35]: 74.2%; inhibition at 10 µM [36]: 11.9%
